According to PubChem BioAssay AID248 (DTP/NCI, 2004):
Inconclusive results and toxic doses are left out. Cut-off read from the data, not from the text of the source: active = T/C of 150% or more; inactive = T/C below 125%.

System: L1210 leukemia ip in BDF1 mice, survival T/C
Assay: NCI In Vivo Anticancer Drug Screen. Data for tumor model L1210 Leukemia (intraperitoneal) in B6D2F1 (BDF1) mice
Conditions: endpoint: mean survival time, higher = longer survival
Summary of the method: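 Antitumor effect is assessed in tumor-bearing animals. Survival in the compound arm is compared with a vehicle-dosed control arm and expressed as their quotient.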

[1] = dose: 100.0 mg/kg/injection, schedule: Q04DX003 (ip), vehicle: saline with Tween-80
[2] = dose: 200.0 mg/kg/injection, schedule: Q04DX003 (ip), vehicle: saline with Tween-80
[3] = dose: 400.0 mg/kg/injection, schedule: Q04DX003 (ip), vehicle: saline with Tween-80
[4] = dose: 100.0 mg/kg/injection, schedule: Q04DX003 (ip), vehicle: other
[5] = dose: 200.0 mg/kg/injection, schedule: Q04DX003 (ip), vehicle: other
[6] = dose: 400.0 mg/kg/injection, schedule: Q04DX003 (ip), vehicle: other
[7] = dose: 100.0 mg/kg/injection, schedule: Q04DX003 (ip), vehicle: Klucel (hydroxypropylcellulose) (HPC)
[8] = dose: 200.0 mg/kg/injection, schedule: Q04DX003 (ip), vehicle: Klucel (hydroxypropylcellulose) (HPC)
[9] = dose: 400.0 mg/kg/injection, schedule: Q04DX003 (ip), vehicle: Klucel (hydroxypropylcellulose) (HPC)
[10] = dose: 100.0 mg/kg/injection, schedule: Q04DX002 (ip), vehicle: Klucel (hydroxypropylcellulose) (HPC)
[11] = dose: 200.0 mg/kg/injection, schedule: Q04DX002 (ip), vehicle: Klucel (hydroxypropylcellulose) (HPC)
[12] = dose: 400.0 mg/kg/injection, schedule: Q04DX002 (ip), vehicle: Klucel (hydroxypropylcellulose) (HPC)
[13] = dose: 50.0 mg/kg/injection, schedule: Q01DX009 (ip), vehicle: Klucel (hydroxypropylcellulose) (HPC)
[14] = dose: 100.0 mg/kg/injection, schedule: Q01DX009 (ip), vehicle: Klucel (hydroxypropylcellulose) (HPC)
[15] = dose: 200.0 mg/kg/injection, schedule: Q01DX009 (ip), vehicle: Klucel (hydroxypropylcellulose) (HPC)
[16] = dose: 400.0 mg/kg/injection, schedule: Q01DX009 (ip), vehicle: Klucel (hydroxypropylcellulose) (HPC)
[17] = dose: 100.0 mg/kg/injection, schedule: Q01DX001 (ip), vehicle: saline
[18] = dose: 200.0 mg/kg/injection, schedule: Q01DX001 (ip), vehicle: saline
[19] = dose: 400.0 mg/kg/injection, schedule: Q01DX001 (ip), vehicle: saline

Measured: T/C

CCCCC(CC)C(=O)N1CCOCC1 (stereo unspecified)
inactive: [1] 120 % of control | [2] 114 % of control | [3] 107 % of control

C(=Nc1ccc2c3c(cccc13)-c1ccccc1-2)c1ccc2c(c1)OCO2
inactive: dose: 100.0 mg/kg/injection, schedule: Q01DX001 (ip), vehicle: other 101 % of control | dose: 200.0 mg/kg/injection, schedule: Q01DX001 (ip), vehicle: other 97 % of control | dose: 400.0 mg/kg/injection, schedule: Q01DX001 (ip), vehicle: other 94 % of control

COc1cccc(C2CCCCCC2OS(=O)(=O)c2ccc(C)cc2)c1OC (stereo unspecified)
inactive: dose: 100.0 mg/kg/injection, schedule: Q04DX003 (ip), vehicle: acetone 110 % of control | dose: 200.0 mg/kg/injection, schedule: Q04DX003 (ip), vehicle: acetone 98 % of control | dose: 400.0 mg/kg/injection, schedule: Q04DX003 (ip), vehicle: acetone 103 % of control

CC(=O)OCCC(CCOC(C)=O)=C1N=C(c2ccccc2)OC1=O
inactive: dose: 100.0 mg/kg/injection, schedule: Q01DX009 (ip), vehicle: saline 97 % of control | [4] 101 % of control | dose: 200.0 mg/kg/injection, schedule: Q01DX009 (ip), vehicle: saline 105 % of control | [5] 104 % of control | dose: 400.0 mg/kg/injection, schedule: Q01DX009 (ip), vehicle: saline 92 % of control | [6] 101 % of control

CC(=O)OC1CCC2(C)C(=CC=C3C2CCC2(C)C3CCC2C(C)/C=C/C(C)C(C)C)C1 (stereo unspecified)
inactive: dose: 100.0 mg/kg/injection, schedule: Q04DX002 (sc), vehicle: saline with Tween-80 97 % of control | [7] 93 % of control | dose: 200.0 mg/kg/injection, schedule: Q04DX002 (sc), vehicle: saline with Tween-80 97 % of control | [8] 96 % of control | dose: 400.0 mg/kg/injection, schedule: Q04DX002 (sc), vehicle: saline with Tween-80 97 % of control | [9] 93 % of control

Cc1ccc([N+](=O)[O-])cc1NC(=O)Nc1cccc(Cl)c1Cl
inactive: [10] 86 % of control | [11] 96 % of control | [12] 90 % of control

CN(CCO)N=Nc1ccccc1C#N
inactive: dose: 12.5 mg/kg/injection, schedule: Q01DX009 (ip), vehicle: other 103 % of control | dose: 25.0 mg/kg/injection, schedule: Q01DX009 (ip), vehicle: other 91 % of control | dose: 25.0 mg/kg/injection, schedule: Q04DX003 (ip), vehicle: other 95 % of control | dose: 50.0 mg/kg/injection, schedule: Q04DX003 (ip), vehicle: other 93 % of control | [4] 95 % of control | [5] 98 % of control | [6] 98 % of control

COC(=O)N1C2C3C(C)=C(C)C2(C)C3(C)S1(=O)=O (stereo unspecified)
inactive: dose: 100.0 mg/kg/injection, schedule: Q01DX001 (ip), vehicle: Klucel (hydroxypropylcellulose) (HPC) 93 % of control | [7] 101 % of control | dose: 200.0 mg/kg/injection, schedule: Q01DX001 (ip), vehicle: Klucel (hydroxypropylcellulose) (HPC) 93 % of control | [8] 106 % of control | dose: 400.0 mg/kg/injection, schedule: Q01DX001 (ip), vehicle: Klucel (hydroxypropylcellulose) (HPC) 97 % of control

S=C(S)NCCc1ccccn1
inactive: [1] 95 % of control | [2] 87 % of control | [3] 98 % of control

O=C1Nc2ccc(Cl)cc2C(c2ccccc2)=NC1O (stereo unspecified)
inactive: dose: 25.0 mg/kg/injection, schedule: Q01DX009 (ip), vehicle: Klucel (hydroxypropylcellulose) (HPC) 103 % of control | dose: 25.0 mg/kg/injection, schedule: Q04DX003 (ip), vehicle: Klucel (hydroxypropylcellulose) (HPC) 98 % of control | [13] 101 % of control | dose: 50.0 mg/kg/injection, schedule: Q04DX003 (ip), vehicle: Klucel (hydroxypropylcellulose) (HPC) 104 % of control | [14] 98 % of control | [7] 104 % of control | [15] 107 % of control | [8] 114 % of control | [16] 91 % of control | [9] 111 % of control

C1CCNNC1
inactive: [17] 104 % of control | dose: 100.0 mg/kg/injection, schedule: Q04DX003 (ip), vehicle: saline 114 % of control | [18] 98 % of control | dose: 200.0 mg/kg/injection, schedule: Q04DX003 (ip), vehicle: saline 94 % of control | [19] 95 % of control | dose: 400.0 mg/kg/injection, schedule: Q04DX003 (ip), vehicle: saline 89 % of control

COc1ccc(C(=O)Nc2ccccc2)cc1NC(=O)NC(C)=O
inactive: [14] 97 % of control | [15] 106 % of control | [16] 100 % of control

FC(F)(F)c1ccccc1NC(=S)N(Cc1ccccc1)Cc1ccccc1
inactive: [14] 92 % of control | [10] 110 % of control | [15] 103 % of control | [11] 92 % of control | [16] 96 % of control | [12] 100 % of control

O=C(O)c1cccc2cccc(-c3c4ccc(=O)c(O)c-4oc4c(O)c(O)ccc34)c12
inactive: [1] 91 % of control | [2] 92 % of control | [3] 89 % of control

COc1ccc(C(=O)CC2(O)C(=O)Nc3ccc(Br)cc32)cc1 (stereo unspecified)
inactive: [10] 92 % of control | [11] 89 % of control | [12] 92 % of control

Cc1cc2c(c3oc(C4(C)OC4C4OC4C)cc(=O)c13)C(=O)c1c(O)c(C3CC(C)(N(C)C)C(O)C(C)O3)cc(C3CC(N(C)C)C(O)C(C)O3)c1C2=O (stereo unspecified)
inactive: dose: 0.06 mg/kg/injection, schedule: Q01DX009 (ip), vehicle: other 118 % of control | dose: 0.06 mg/kg/injection, schedule: Q01DX009 (ip), vehicle: saline 114 % of control | dose: 0.12 mg/kg/injection, schedule: Q01DX009 (ip), vehicle: other 95 % of control | dose: 0.12 mg/kg/injection, schedule: Q01DX009 (ip), vehicle: saline 86 % of control | dose: 0.24 mg/kg/injection, schedule: Q01DX009 (ip), vehicle: saline 88 % of control | dose: 1.5 micrograms/kg/injection, schedule: Q01DX015 (ip), vehicle: saline 115 % of control | dose: 3.0 micrograms/kg/injection, schedule: Q01DX015 (ip), vehicle: saline 114 % of control | dose: 4.0 micrograms/kg/injection, schedule: Q01DX001 (ip), vehicle: carboxymethylcellulose (CMC) 110 % of control | dose: 6.0 micrograms/kg/injection, schedule: Q01DX015 (ip), vehicle: saline 117 % of control | dose: 9.0 micrograms/kg/injection, schedule: Q01DX001 (ip), vehicle: carboxymethylcellulose (CMC) 109 % of control | dose: 12.0 micrograms/kg/injection, schedule: Q01DX015 (ip), vehicle: saline 117 % of control | dose: 18.0 micrograms/kg/injection, schedule: Q01DX001 (ip), vehicle: carboxymethylcellulose (CMC) 112 % of control | dose: 25.0 micrograms/kg/injection, schedule: Q01DX Z (ip), vehicle: carboxymethylcellulose (CMC) 107 % of control | dose: 37.0 micrograms/kg/injection, schedule: Q01DX001 (ip), vehicle: carboxymethylcellulose (CMC) 112 % of control | dose: 50.0 micrograms/kg/injection, schedule: Q01DX Z (ip), vehicle: carboxymethylcellulose (CMC) 98 % of control | dose: 75.0 micrograms/kg/injection, schedule: Q01DX001 (ip), vehicle: carboxymethylcellulose (CMC) 121 % of control | dose: 96.0 micrograms/kg/injection, schedule: Q01DX015 (ip), vehicle: saline 108 % of control

c1ccc(C[N+]23CCN(CC2)CC3)cc1
inactive: dose: 12.5 mg/kg/injection, schedule: Q01DX009 (ip), vehicle: saline 119 % of control | dose: 25.0 mg/kg/injection, schedule: Q01DX009 (ip), vehicle: saline 109 % of control | dose: 50.0 mg/kg/injection, schedule: Q01DX009 (ip), vehicle: saline 108 % of control

O=C(COc1ccc(Br)cc1Br)OCCCl
inactive: [17] 100 % of control | [18] 117 % of control | [19] 103 % of control

COc1ccc([N+](=O)[O-])cc1NC(=O)N(C1CCCCC1)C1CCCCC1
inactive: [13] 96 % of control | [14] 93 % of control | [15] 96 % of control
